Measured values as given in PubChem BioAssay AID1963843 (Molecular Pharmacology Branch, DTP, NCI, 2024).

Test system: 616215-338-R-J1-PDC complex spheroid viability
Test: Anticancer human tumor 616215-338-R-J1-PDC patient-derived colon adenocarcinoma cell line growth inhibition [POLQ]
Settings: for IC50: curve of first compound; for viability, T/C: stronger effect = lower value
Procedure, shortened: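 PDC + HUVEC + MSC complex spheroids; POLQ inhibitors ± partner drugs; top conc. at/near clinical Cmax, else 10 microM (SN-38 1 microM), half-log dilutions; 37 degrees C, 5% CO2.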

[1] = second compound 0.0316 µM, first compound 0.0316 µM
[2] = second compound 0.0316 µM, first compound 0.1 µM
[3] = second compound 0.1 µM, first compound 0.0316 µM
[4] = second compound 0.1 µM, first compound 0.1 µM
[5] = second compound 0.316 µM, first compound 0.0316 µM
[6] = second compound 0.316 µM, first compound 0.1 µM
[7] = second compound 1 µM, first compound 0.0316 µM
[8] = second compound 1 µM, first compound 0.1 µM
[9] = second compound 3.16 µM, first compound 0.0316 µM
[10] = second compound 3.16 µM, first compound 0.1 µM
[11] = second compound 10 µM, first compound 0.0316 µM
[12] = second compound 10 µM, first compound 0.1 µM
[13] = second compound 0.0316 µM, first compound 0.316 µM
[14] = second compound 0.0316 µM, first compound 1 µM
[15] = second compound 0.0316 µM, first compound 3.16 µM
[16] = second compound 0.0316 µM, first compound 10 µM
[17] = second compound 0.1 µM, first compound 0.316 µM
[18] = second compound 0.1 µM, first compound 1 µM
[19] = second compound 0.1 µM, first compound 3.16 µM
[20] = second compound 0.1 µM, first compound 10 µM
[21] = second compound 0.316 µM, first compound 0.316 µM
[22] = second compound 0.316 µM, first compound 1 µM
[23] = second compound 0.316 µM, first compound 3.16 µM
[24] = second compound 0.316 µM, first compound 10 µM
[25] = second compound 1 µM, first compound 0.316 µM
[26] = second compound 1 µM, first compound 1 µM
[27] = second compound 1 µM, first compound 3.16 µM
[28] = second compound 1 µM, first compound 10 µM
[29] = second compound 3.16 µM, first compound 0.316 µM
[30] = second compound 3.16 µM, first compound 1 µM
[31] = second compound 3.16 µM, first compound 3.16 µM
[32] = second compound 3.16 µM, first compound 10 µM
[33] = second compound 10 µM, first compound 0.316 µM
[34] = second compound 10 µM, first compound 1 µM
[35] = second compound 10 µM, first compound 3.16 µM
[36] = second compound 10 µM, first compound 10 µM
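Also: spheroids exposed to compounds for one week before readout.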
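For viability, T/C in this document: percent viability relative to DMSO vehicle wells taken as 100%.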

CC[C@@]1(O)C(=O)OCc2c1cc1n(c2=O)Cc2cc3c(CN(C)C)c(O)ccc3nc2-1 + COC1C(OC(N)=O)C(O)C(Oc2ccc3c(O)c(NC(=O)c4ccc(O)c(CC=C(C)C)c4)c(=O)oc3c2C)OC1(C)C
IC50 (second compound 0.0316 µM): > 100 nM | IC50 (second compound 0.1 µM): > 100 nM | IC50 (second compound 0.316 µM): > 100 nM | IC50 (second compound 1 µM): > 100 nM | IC50 (second compound 3.16 µM): > 100 nM | IC50 (second compound 10 µM): > 100 nM | viability, T/C (second compound 0.0316 µM, first compound 0.000316 µM): 99.3% | viability, T/C (second compound 0.0316 µM, first compound 0.001 µM): 97.5% | viability, T/C (second compound 0.0316 µM, first compound 0.00316 µM): 104% | viability, T/C (second compound 0.0316 µM, first compound 0.01 µM): 97.6% | viability, T/C [1]: 102% | viability, T/C [2]: 81.7% | viability, T/C (second compound 0.1 µM, first compound 0.000316 µM): 99.2% | viability, T/C (second compound 0.1 µM, first compound 0.001 µM): 112% | viability, T/C (second compound 0.1 µM, first compound 0.00316 µM): 99.5% | viability, T/C (second compound 0.1 µM, first compound 0.01 µM): 106% | viability, T/C [3]: 106% | viability, T/C [4]: 78.6% | viability, T/C (second compound 0.316 µM, first compound 0.000316 µM): 103% | viability, T/C (second compound 0.316 µM, first compound 0.001 µM): 93.5% | viability, T/C (second compound 0.316 µM, first compound 0.00316 µM): 95.1% | viability, T/C (second compound 0.316 µM, first compound 0.01 µM): 105% | viability, T/C [5]: 110% | viability, T/C [6]: 90.3% | viability, T/C (second compound 1 µM, first compound 0.000316 µM): 101% | viability, T/C (second compound 1 µM, first compound 0.001 µM): 98.8% | viability, T/C (second compound 1 µM, first compound 0.00316 µM): 98.5% | viability, T/C (second compound 1 µM, first compound 0.01 µM): 101% | viability, T/C [7]: 101% | viability, T/C [8]: 75.5% | viability, T/C (second compound 3.16 µM, first compound 0.000316 µM): 95.3% | viability, T/C (second compound 3.16 µM, first compound 0.001 µM): 101% | viability, T/C (second compound 3.16 µM, first compound 0.00316 µM): 99.4% | viability, T/C (second compound 3.16 µM, first compound 0.01 µM): 100% | viability, T/C [9]: 101% | viability, T/C [10]: 64.9% | viability, T/C (second compound 10 µM, first compound 0.000316 µM): 106% | viability, T/C (second compound 10 µM, first compound 0.001 µM): 99.5% | viability, T/C (second compound 10 µM, first compound 0.00316 µM): 96.2% | viability, T/C (second compound 10 µM, first compound 0.01 µM): 100% | viability, T/C [11]: 93.5% | viability, T/C [12]: 58.8%

CCc1cc2c(N3CCc4c(cc(Cn5ccnc5)cc4-c4cn(C)nc4C(F)(F)F)C3=O)cc(C)nc2c(OC)n1 + Nc1ccc(C#CCN(C(=O)Cc2ncc(C(F)(F)F)cc2C(F)(F)F)c2ccc(F)cc2)nn1
IC50 (second compound 0.0316 µM): 2530 nM | IC50 (second compound 0.1 µM): 2960 nM | IC50 (second compound 0.316 µM): 2460 nM | IC50 (second compound 1 µM): 2410 nM | IC50 (second compound 3.16 µM): 2620 nM | IC50 (second compound 10 µM): 1420 nM | viability, T/C [1]: 106% | viability, T/C [2]: 108% | viability, T/C [13]: 80.2% | viability, T/C [14]: 62% | viability, T/C [15]: 51% | viability, T/C [16]: 38.5% | viability, T/C [3]: 123% | viability, T/C [4]: 101% | viability, T/C [17]: 68.7% | viability, T/C [18]: 60.9% | viability, T/C [19]: 54.3% | viability, T/C [20]: 40% | viability, T/C [5]: 105% | viability, T/C [6]: 111% | viability, T/C [21]: 75.8% | viability, T/C [22]: 61.5% | viability, T/C [23]: 51.5% | viability, T/C [24]: 40.1% | viability, T/C [7]: 115% | viability, T/C [8]: 108% | viability, T/C [25]: 91.5% | viability, T/C [26]: 57% | viability, T/C [27]: 51.8% | viability, T/C [28]: 41.9% | viability, T/C [9]: 112% | viability, T/C [10]: 111% | viability, T/C [29]: 78.2% | viability, T/C [30]: 63.6% | viability, T/C [31]: 51.1% | viability, T/C [32]: 38.4% | viability, T/C [11]: 99.4% | viability, T/C [12]: 98.2% | viability, T/C [33]: 74.9% | viability, T/C [34]: 53.3% | viability, T/C [35]: 45.8% | viability, T/C [36]: 41.4%

O=C(Nc1ccc(O)c(NS(=O)(=O)c2ccc(F)cc2)c1)c1ccc(-c2ccccc2)cc1 + Cc1cccc(N(C)C(=O)C2C(O)CCN2c2nc(C)cc(C(F)(F)F)c2C#N)c1
IC50 (second compound 0.0316 µM): > 10000 nM | IC50 (second compound 0.1 µM): > 10000 nM | IC50 (second compound 0.316 µM): > 10000 nM | IC50 (second compound 1 µM): 6740 nM | IC50 (second compound 3.16 µM): 8180 nM | IC50 (second compound 10 µM): 7240 nM | viability, T/C [1]: 109% | viability, T/C [2]: 105% | viability, T/C [13]: 103% | viability, T/C [14]: 93.7% | viability, T/C [15]: 101% | viability, T/C [16]: 72.5% | viability, T/C [3]: 109% | viability, T/C [4]: 95.7% | viability, T/C [17]: 108% | viability, T/C [18]: 114% | viability, T/C [19]: 96.5% | viability, T/C [20]: 76.1% | viability, T/C [5]: 95.2% | viability, T/C [6]: 117% | viability, T/C [21]: 92.1% | viability, T/C [22]: 108% | viability, T/C [23]: 103% | viability, T/C [24]: 73% | viability, T/C [7]: 98.3% | viability, T/C [8]: 99.8% | viability, T/C [25]: 107% | viability, T/C [26]: 96.6% | viability, T/C [27]: 82% | viability, T/C [28]: 33.4% | viability, T/C [9]: 117% | viability, T/C [10]: 106% | viability, T/C [29]: 95.3% | viability, T/C [30]: 88.1% | viability, T/C [31]: 95.4% | viability, T/C [32]: 40.5% | viability, T/C [11]: 108% | viability, T/C [12]: 102% | viability, T/C [33]: 91.8% | viability, T/C [34]: 93.1% | viability, T/C [35]: 87.2% | viability, T/C [36]: 35.8%
